Entries after “also recorded” stand apart in the source; their conditions may differ.
Legend:
[1] = test system: PCNA-dependent DNA replication; details: cited from earlier work
[2] = biological target: T1, CDK4/cyclin D1 (Homo sapiens, UniProt P11802+P24385); assay: CDK4/cyclin D1 kinase assay (in vitro pRb phosphorylation); type: biochemical
T1 construct: His6 (N); made in house; host or cells: CDK4: Sf9 insect cells (baculovirus); GST-pRb: E. coli BL21(DE3)
Experimental: For the 96-well format in vitro kinase assay GST-pRb was used immobilized on glutathione-Sepharose beads.
CDK4/cyclin D1 kinase assay: The reaction mixture consisted of 1 μM of CDK4 and cyclin D1, 5 μg GST-pRb, 100 mM ATP and 0.2 μCi ^32P-ATP. The kinase reaction was carried out for 10 min at 30° C., the reaction was stopped with the addition of sample buffer and after heating the sample was resolved on 10% SDS-PAGE. The aouthoradiography images were scanned and quantified using QuickScan software. The IC50 values were determined using GraFit software.

[3] = biological target: T2, PCNA (Homo sapiens, UniProt P12004); details: cited from earlier work
T2 construct: made in house; host or cells: Escherichia coli BL21(DE3), pT7-PCNA
T2 sequence (P12004 whole entry): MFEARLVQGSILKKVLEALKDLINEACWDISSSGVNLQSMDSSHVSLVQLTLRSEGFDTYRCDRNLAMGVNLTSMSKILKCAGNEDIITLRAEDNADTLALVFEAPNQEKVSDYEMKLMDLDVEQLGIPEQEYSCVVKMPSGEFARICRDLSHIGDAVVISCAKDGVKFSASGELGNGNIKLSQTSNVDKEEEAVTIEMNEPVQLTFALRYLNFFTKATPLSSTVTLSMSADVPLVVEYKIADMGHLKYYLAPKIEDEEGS

[4] = biological target: T1, CDK4/cyclin D1; details: background; cited from earlier work

T1 sequence (P11802 whole entry): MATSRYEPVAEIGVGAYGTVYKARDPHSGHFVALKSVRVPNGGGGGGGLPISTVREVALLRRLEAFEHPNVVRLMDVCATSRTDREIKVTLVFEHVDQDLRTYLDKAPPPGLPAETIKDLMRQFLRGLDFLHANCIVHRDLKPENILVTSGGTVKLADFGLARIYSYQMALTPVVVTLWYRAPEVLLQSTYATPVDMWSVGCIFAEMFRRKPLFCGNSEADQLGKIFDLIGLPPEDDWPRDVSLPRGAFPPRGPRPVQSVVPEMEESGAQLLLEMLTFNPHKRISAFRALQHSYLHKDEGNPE
T1 sequence (P24385 whole entry): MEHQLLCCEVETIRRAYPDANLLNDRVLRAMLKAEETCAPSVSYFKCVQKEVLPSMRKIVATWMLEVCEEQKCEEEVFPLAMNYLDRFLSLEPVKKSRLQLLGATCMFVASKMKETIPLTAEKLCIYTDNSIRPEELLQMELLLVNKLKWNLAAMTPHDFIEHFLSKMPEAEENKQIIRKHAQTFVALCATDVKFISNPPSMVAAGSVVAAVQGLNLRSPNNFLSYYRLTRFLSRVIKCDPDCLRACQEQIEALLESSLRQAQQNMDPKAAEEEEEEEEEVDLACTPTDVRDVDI

| Substance | inhibition of DNA replication in vitro (in words) [1] | CDK/cyclin inhibitory activity [2] | affinity for PCNA (in words) [3] | enthalpy of binding to PCNA ([3]; isothermal calorimetry) [kcal/mol] | entropic contribution to PCNA binding ([3]; isothermal calorimetry) [cal mol^−1 ° C.^−1] | Kd ([3]; read-out: Kd of binding to PCNA) [nM] | inhibition of CDK function [4] | Ka of binding to PCNA ([3]; isothermal calorimetry) |
| --- | --- | --- | --- | --- | --- | --- | --- | --- |
| SAVLQKKITDYFHPKK [CM peptide, hybrid containing 12 residues from the C-terminus of Pogo, flanked by 4 residues from DNA ligase I] | potency very similar to that of p21(141-160); also recorded: efficient inhibitor | devoid of CDK/cyclin inhibitory activity; also recorded: does not inhibit CDK function | nanomolar affinity; also recorded: affinity very similar to that of the p21(141-160) peptide | -9.52 | 0.61 | 100 | unable to inhibit CDK function | – |
| p21D149A: site point mutant p21(141-160)D149A (KRRQTSMTAFYHSKRRLIFS; UniProt P38936 141-160, looked up, variant D149A) [reference compound] | – | – | – | – | – | – | – | 7.8×10^5 |

From patent publication US20080167385A1 (priority 2004, published 2008)
